Experimental data reported in US20080171783A1, “COMPOSITIONS AND METHODS FOR TREATING HYPERPROLIFERATIVE DISEASE” (Migenix Inc., priority 2006, published 2008).

Columns and labels:
K-562 = experiment: NCI In Vitro Cell Line Screening (SRB); type: cell-based; conditions: K-562, Leukemia, 48 h
NCI-H322M = experiment: NCI In Vitro Cell Line Screening (SRB); type: cell-based, human; conditions: Non-Small Cell Lung Cancer, 48 h
NCI-H460 = experiment: NCI In Vitro Cell Line Screening (SRB); type: cell-based, human; conditions: NCI-H460, Non-Small Cell Lung Cancer, 48 h
NCI-H522 = experiment: NCI In Vitro Cell Line Screening (SRB); type: cell-based, human; conditions: NCI-H522, Non-Small Cell Lung Cancer, 48 h
HCC-2998 = experiment: NCI In Vitro Cell Line Screening (SRB); type: cell-based; conditions: HCC-2998, Colon Cancer, 48 h
HT29 = experiment: NCI In Vitro Cell Line Screening (SRB); type: cell-based; conditions: Homo sapiens, HT-29, HT29, Colon Cancer, 48 h
KM12 = experiment: NCI In Vitro Cell Line Screening (SRB); type: cell-based, human; conditions: KM12, Colon Cancer, 48 h
SF-295 = experiment: NCI In Vitro Cell Line Screening (SRB); type: cell-based, human; conditions: SF-295, CNS Cancer, 48 h
MALME-3M = experiment: NCI In Vitro Cell Line Screening (SRB); type: cell-based, human; conditions: Melanoma, 48 h
SK-MEL-28 = experiment: NCI In Vitro Cell Line Screening (SRB); type: cell-based, human; conditions: SK-MEL-28, Melanoma, 48 h
OVCAR-4 = experiment: NCI In Vitro Cell Line Screening (SRB); type: cell-based, human; conditions: OVCAR-4, Ovarian Cancer, 48 h
SK-OV-3 = experiment: NCI In Vitro Cell Line Screening (SRB); type: cell-based, human; conditions: SK-OV-3, Ovarian Cancer, 48 h
786-0 = experiment: NCI In Vitro Cell Line Screening (SRB); type: cell-based, human; conditions: 786-0, Renal Cancer, 48 h
CAKI-1 = experiment: NCI In Vitro Cell Line Screening (SRB); type: cell-based, human; conditions: CAKI-1, Renal Cancer, 48 h
SN12C = experiment: NCI In Vitro Cell Line Screening (SRB); type: cell-based, human; conditions: Renal Cancer, 48 h
TK-10 = experiment: NCI In Vitro Cell Line Screening (SRB); type: cell-based, human; conditions: TK-10, Renal Cancer, 48 h
UO-31 = experiment: NCI In Vitro Cell Line Screening (SRB); type: cell-based, human; conditions: UO-31, Renal Cancer, 48 h
BT-549 = experiment: NCI In Vitro Cell Line Screening (SRB); type: cell-based, human; conditions: BT-549, Breast Cancer, 48 h
[1] = system: 5 Leukemia and 5 Colon Cancer Cell Lines; experiment: Cell viability by XTT, cell line panel; type: cell-based
Description: Compounds were solubilized at […] in DMSO and were stored at −20° C. Test compounds were initially tested at a single concentration of 10 μM and a subset of test compounds were further tested in selected cell lines using a six concentration dose response curve.
Cell Preparation Cancer cell lines were passaged in T-75 flasks prior to use in the assay in cell culture medium recommended by the ATCC (American Type Culture Collection; Table 6). On the day preceding the assay, the cells were split 1:2 to assure they were in an exponential growth phase at the time of compound treatment. Total cell and viability quantification was performed using a hemocytometer and Trypan Blue dye exclusion. […] The cells were resuspended at the appropriate cell per mL (Table 6) in tissue culture medium and added to the microtitre plates in a volume of 100 μL. Colon cell lines were incubated overnight at 37° C./5% CO2 to allow for cell adherence to the plates.
Plate Format: Each plate contains cell control wells (cells only), drug calorimetric control wells (drug only) as well as experimental wells (drug plus cells). Samples were tested in triplicate at a concentration of 10 μM and five half-logarithmic dilutions.
Cell Viability by XTT: Following incubation at 37° C. in a 5% CO2 incubator for four days, the test plates were stained with the tetrazolium dye XTT (2,3-bis(2-methoxy-4-nitro-5-sulfophenyl)-5-[(phenylamino)carbonyl]-2H-tetrazolium hydroxide). XTT-tetrazolium was metabolized by the mitochondrial enzymes of metabolically active cells to a soluble formazan product. XTT solution was prepared daily as a stock of 1 mg/mL in RPMI1640. Phenazine methosulfate (PMS) solution was prepared at 0.15 mg/mL in phosphate buffered saline (PBS) and stored in the dark at −20° C. XTT/PMS stock was prepared immediately before use by adding 40 μL of PMS per mL of XTT solution. Fifty (50) microlitres of XTT/PMS was added to each well of the plate and the plate was reincubated for 4 hours at 37° C. Plates were sealed with adhesive plate sealers and shaken gently or inverted several times to mix the soluble formazan product and the plate was read spectrophotometrically at 450/650 nm with a Molecular Devices Vmax plate reader. […] An Average Response Factor (ARF) was calculated for each compound by averaging the ten Percentage of Control values for the cell lines. […] Deviations below 100% control indicate activity. The concentration of each tested compound is 10 μM.

[2] = Homo sapiens, read-out: LC50 (the source's name)

In the case of `CC(C)(C)c1ccc(NC(=O)[C@H](CCCCN)NC(=O)OCC2c3ccccc3-c3ccccc32)cc1` [Compound 105, (S)-[5-AMINO-1-(4-TERT-BUTYL-PHENYLCARBAMOYL)-PENTYL]-CARBAMIC ACID 9H-FLUOREN-9-YLMETHYL ESTER], the GI50 (K-562; Homo sapiens, K562) is reported as 1.39 µM, the TGI (K-562) is reported as 3.32 µM and the GI50 (NCI-H322M; Homo sapiens) is reported as 13.5 µM. It also gave a CC50 (NCI-H322M; [2]) of 69.9 µM, a TGI (NCI-H322M) of 30.7 µM and a GI50 (NCI-H460; Homo sapiens) of 1.13 µM. It also gave a CC50 (NCI-H460; [2]) of 5.37 µM, a TGI (NCI-H460) of 2.47 µM and a GI50 (NCI-H522; Homo sapiens) of 2.1 µM. It also gave a TGI (NCI-H522) of 4.43 µM, a TGI (HCC-2998) of 2.88 µM and a GI50 (HCC-2998; Homo sapiens) of 1.39 µM. The LC50 (lethal concentration, 50% cell kill) (HCC-2998; Homo sapiens) was 5.96 µM, the GI50 (HT29) was 0.733 µM and the CC50 (HT29; read-out: LC50 (the source's name)) was > 100 µM. For the same molecule, the GI50 (KM12; Homo sapiens) was 14.8 µM, the CC50 (KM12; [2]) was 55.7 µM and the TGI (KM12) was 28.7 µM. The GI50 (SF-295; Homo sapiens) was 3.74 µM, the CC50 (SF-295; [2]) was 65.3 µM and the TGI (SF-295) was 19.0 µM. It also gave a GI50 (MALME-3M; Homo sapiens) of 15.6 µM, a CC50 (MALME-3M; [2]) of 89.5 µM and a TGI (MALME-3M) of 37.4 µM. For the same molecule, the GI50 (SK-MEL-28; Homo sapiens) was 12.3 µM, the CC50 (SK-MEL-28; [2]) was 50.2 µM and the TGI (SK-MEL-28) was 24.8 µM. The GI50 (OVCAR-4; Homo sapiens) was 1.77 µM, the CC50 (OVCAR-4; [2]) was > 100 µM and the TGI (OVCAR-4) was 4.25 µM. It also gave a GI50 (SK-OV-3; Homo sapiens) of 1.85 µM, a CC50 (SK-OV-3; [2]) of 5.99 µM and a TGI (SK-OV-3) of 3.33 µM. The TGI (786-0) was 2.66 µM, the GI50 (786-0; Homo sapiens) was 1.33 µM and the CC50 (786-0; [2]) was 5.3 µM. For the same molecule, the TGI (CAKI-1) was 43.9 µM, the GI50 (CAKI-1; Homo sapiens) was 19.8 µM and the CC50 (CAKI-1; [2]) was 97.2 µM. The GI50 (SN12C; Homo sapiens) was 13.8 µM, the CC50 (SN12C; [2]) was 62.9 µM and the TGI (SN12C) was 29.5 µM. For the same molecule, the GI50 (TK-10; Homo sapiens) was 14.1 µM, the CC50 (TK-10; [2]) was 82.9 µM and the TGI (TK-10) was 34.1 µM. For the same molecule, the GI50 (UO-31; Homo sapiens) was 1.58 µM, the CC50 (UO-31; [2]) was 6.76 µM and the TGI (UO-31) was 3.27 µM. For the same molecule, the TGI (BT-549) was 50.6 µM, the GI50 (BT-549; Homo sapiens) was 25.3 µM and the CC50 (BT-549; [2]) was > 100 µM. For the same molecule, the “Range (Percentage of Control over the same 10 cell lines)” value ([1]; 10 μM, lowest to highest of the ten cell lines) was 0 to 110.8% and the viability at 10 µM ([1]; average of the ten Percentage of Control values, read-out: ARF (Average Response Factor, Average Percentage of Control)) was 53.4%.
